Source: ChEMBL document CHEMBL1201862, “PubChem BioAssay data set” (2004)
Calls of active or inactive are those of the source. For most assays here, no stated cut-off is given here; in the data, actives have a measured EC50 and inactives only a lower limit.

Columns and labels:
[1] = luciferase reporter signal suppression in cells – H4 neuroglioma cells, luminescence, dose response (AID 1990); format: functional, cell-based
[2] = test system: Streptococcus sp. 'group A'; experiment: Streptococcus pyogenes SK(-)GAS viability under kanamycin – luminescence, BacTiterGlo, confirmation, counter-screen for streptokinase expression inhibitor project, dose response (AID 1900); format: functional, organism-based
[3] = test system: BJ; experiment: BJ-TERT fibroblast viability loss – cell-based, RAS-independent, luminescence, dose response (AID 1933); format: functional; settings: Homo sapiens
[4] = Luminescence Cell-Based Dose Response HTS to Identify Inhibitors of 5'UTR Stem-Loop Driven Prion Protein mRNA Translation in H4 Neuroglioblastoma Cells. [Related pubchem assays: 1827 (Project Summary), 1813 (Primary HTS)]; format: functional
[5] = alpha-synuclein stem-loop luciferase translation blockers – H4 neuroglioma cells, luminescence, confirmation (AID 1988); format: functional, cell-based
[6] = target: T1, Streptokinase A (Streptococcus pyogenes serotype M1, UniProt P10520); experiment: viability-normalized secreted streptokinase activity reduction – plasminogen activation absorbance, OD405, dose response (AID 1914); format: functional, Streptococcus pyogenes M1 GAS;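 further: secreted streptokinase activity via plasminogen activation per viability signal from cell pellet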
T1 sequence (P10520 whole entry): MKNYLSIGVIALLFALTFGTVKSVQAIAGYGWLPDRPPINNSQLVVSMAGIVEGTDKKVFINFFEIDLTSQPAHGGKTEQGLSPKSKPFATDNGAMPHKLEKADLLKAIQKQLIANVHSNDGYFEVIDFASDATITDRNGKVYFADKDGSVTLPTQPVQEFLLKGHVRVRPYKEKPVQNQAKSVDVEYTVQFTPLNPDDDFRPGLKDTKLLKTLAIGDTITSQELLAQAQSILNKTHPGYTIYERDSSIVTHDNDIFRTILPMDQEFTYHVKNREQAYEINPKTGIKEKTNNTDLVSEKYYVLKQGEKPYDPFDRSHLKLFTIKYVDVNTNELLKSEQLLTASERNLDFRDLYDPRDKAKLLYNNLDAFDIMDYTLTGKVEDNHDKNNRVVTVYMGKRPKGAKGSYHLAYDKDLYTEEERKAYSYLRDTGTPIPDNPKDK

[7] = test system: BJ; experiment: cells; format: functional, cell-based; settings: Homo sapiens
[8] = target: Large T antigen (Simian virus 40, UniProt P03070); format: functional, Betapolyomavirus macacae;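 further: Confirmatory-stage PubChem screen for compounds that inhibit SV40 T antigen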
Large T antigen, sequence (P03070 whole entry): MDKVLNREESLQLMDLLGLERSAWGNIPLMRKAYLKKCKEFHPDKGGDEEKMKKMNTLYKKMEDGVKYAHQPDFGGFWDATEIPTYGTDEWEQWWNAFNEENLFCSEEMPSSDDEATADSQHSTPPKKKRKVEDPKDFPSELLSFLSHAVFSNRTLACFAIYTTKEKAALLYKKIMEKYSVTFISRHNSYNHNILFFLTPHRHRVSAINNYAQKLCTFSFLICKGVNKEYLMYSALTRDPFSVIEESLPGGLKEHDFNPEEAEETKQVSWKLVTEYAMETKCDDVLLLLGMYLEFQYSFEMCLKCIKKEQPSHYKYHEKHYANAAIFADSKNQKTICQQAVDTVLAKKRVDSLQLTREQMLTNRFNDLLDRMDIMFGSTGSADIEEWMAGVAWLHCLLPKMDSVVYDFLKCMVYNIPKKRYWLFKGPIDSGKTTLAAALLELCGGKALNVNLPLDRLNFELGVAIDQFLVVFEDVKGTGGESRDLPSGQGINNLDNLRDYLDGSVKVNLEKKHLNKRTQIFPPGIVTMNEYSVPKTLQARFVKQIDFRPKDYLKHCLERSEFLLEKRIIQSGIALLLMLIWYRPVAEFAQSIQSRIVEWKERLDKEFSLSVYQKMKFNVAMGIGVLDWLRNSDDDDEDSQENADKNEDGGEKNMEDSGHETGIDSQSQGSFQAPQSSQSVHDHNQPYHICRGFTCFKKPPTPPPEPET

[9] = test system: BJ; experiment: BJ-TERT-LT-ST fibroblast viability loss – cell-based, RAS-independent, luminescence, dose response (AID 1935); format: functional; settings: Homo sapiens;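 further: BJ fibroblasts immortalized with TERT plus LT and ST oncogenes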
[10] = DRD fibroblast viability loss – cell-based, non-viral oncogenic, luminescence, dose response (AID 1934); format: functional; settings: Homo sapiens
[11] = test system: Streptococcus; experiment: GAS UMAA2166 growth inhibition – luminescence, BacTiterGlo, counter-screen for streptokinase expression inhibitor project, dose response (AID 1915); format: functional, organism-based;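 further: potency for reduction of bacterial viability or growth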
[12] = target: Glucose-6-phosphate 1-dehydrogenase (Homo sapiens, UniProt P11413); experiment: inhibition of Homo sapiens G6PD, dose series – biochemical, fluorescence, selectivity assay for P. falciparum G6PD inhibitor project, dose response (AID 504792); format: functional
Glucose-6-phosphate 1-dehydrogenase, sequence (P11413 whole entry): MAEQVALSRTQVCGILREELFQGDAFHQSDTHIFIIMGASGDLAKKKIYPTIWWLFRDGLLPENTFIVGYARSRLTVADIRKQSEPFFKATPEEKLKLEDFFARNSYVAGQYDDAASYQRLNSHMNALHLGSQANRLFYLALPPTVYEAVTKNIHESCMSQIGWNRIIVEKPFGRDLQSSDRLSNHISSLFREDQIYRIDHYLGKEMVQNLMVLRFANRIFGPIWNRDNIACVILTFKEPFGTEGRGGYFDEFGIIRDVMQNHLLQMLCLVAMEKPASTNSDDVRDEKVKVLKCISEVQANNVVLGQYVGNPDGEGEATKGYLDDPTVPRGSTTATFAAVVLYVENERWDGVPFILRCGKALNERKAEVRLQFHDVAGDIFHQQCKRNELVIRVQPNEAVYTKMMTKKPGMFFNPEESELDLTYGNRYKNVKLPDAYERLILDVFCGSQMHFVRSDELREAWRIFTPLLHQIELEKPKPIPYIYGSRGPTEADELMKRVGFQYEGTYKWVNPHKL

[13] = HEK-293T viability loss after treatment – luminescence, T-cell screen hits, cytotoxicity control for TCR NF-kB inhibitor project, dose response (AID 489026); format: functional, cell-based;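 further: cells exposed to compound about 14 hours before the viability readout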
[14] = target: Heat shock protein HSP 90-alpha (Homo sapiens, UniProt P07900); format: functional, organism-based
[15] = test system: INS1; experiment: INS-1E survival protection against cytokine death – cell-based, luminescence, retest, dose response (AID 449756); format: functional; settings: Rattus norvegicus;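 further: cell death triggered by IL-1 beta plus TNF-alpha plus IFN-gamma mixture; protective hits raise ATP signal compared with cytokine alone wells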
[16] = Luminescence Cell-Based/Microorganism Confirmation at Dose of Inhibitors of Trypanosoma cruzi Infection. [Related pubchem assays: 1885, 1968 ]; format: functional
[17] = Trypanosoma cruzi growth suppression in host cells – NIH3T3 host cells, beta-gal luminescence, confirmation (AID 2044); format: functional, cell-based;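 further: intracellular parasites grown in NIH/3T3 mouse fibroblasts as host cells; luminescent beta-galactosidase reporter signal from transgenic T. cruzi replicating inside host cells; inhibitors lower the luminescence signal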
[18] = Luminescence Cell-Based Secondary HTS screen to identify cytotoxic compounds of NIH3T3 cells. [Related pubchem assays: 1885, 1968 ]; format: functional
[19] = NIH3T3 cell viability loss – ATP luminescence, mouse fibroblasts, counter-screen, dose response (AID 2010); format: functional, cell-based;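 further: cells exposed to compound for about 90 hours before reading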
[20] = cells; format: functional
[21] = T. cruzi infection blockers in NIH3T3 cells – beta-gal luminescence, NIH3T3 host cells, confirmation (AID 2630); format: functional, cell-based; settings: Mus musculus
[22] = target: T2, High affinity choline transporter 1 (Homo sapiens, UniProt Q9GZV3); experiment: human choline transporter blockers, potency – cell-based, 5-point CRC, membrane potential dye, dose response (AID 504840); format: functional
T2 sequence (Q9GZV3 whole entry): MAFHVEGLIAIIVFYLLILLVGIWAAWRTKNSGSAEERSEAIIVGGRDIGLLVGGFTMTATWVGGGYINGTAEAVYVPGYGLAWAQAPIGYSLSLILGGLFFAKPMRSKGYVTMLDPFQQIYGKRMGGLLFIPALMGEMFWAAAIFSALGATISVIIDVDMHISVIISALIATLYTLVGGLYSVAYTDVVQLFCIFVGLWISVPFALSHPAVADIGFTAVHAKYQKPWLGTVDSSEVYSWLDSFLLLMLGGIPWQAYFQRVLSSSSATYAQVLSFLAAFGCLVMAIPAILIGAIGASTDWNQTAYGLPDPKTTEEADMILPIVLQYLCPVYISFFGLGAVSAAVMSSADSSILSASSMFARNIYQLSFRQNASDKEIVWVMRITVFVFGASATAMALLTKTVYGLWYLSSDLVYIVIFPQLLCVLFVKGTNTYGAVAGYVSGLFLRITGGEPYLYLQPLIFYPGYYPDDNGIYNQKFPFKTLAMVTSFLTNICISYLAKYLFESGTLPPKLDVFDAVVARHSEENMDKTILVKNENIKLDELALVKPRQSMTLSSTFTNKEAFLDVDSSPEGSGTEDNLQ

[23] = test system: Escherichia coli; experiment: microbe, parasite or virus in culture

Structure (SMILES): COc1cc(/C=C/C(=O)c2ccc([N+](=O)[O-])o2)ccc1O
- EC50 [1]: > 30 µM (not active)
- EC50 [2]: 3.09 µM (active)
- EC50 [3]: > 150 µM (not active)
- EC50 [4]: 7.59 µM (active)
- EC50 [5]: 8.16 µM (active)
- EC50 [6]: 12.8 µM (active)
- EC50 [7]: > 150 µM (inconclusive)
- IC50 [8]: 8.65 µM (active)
- EC50 [9]: 1.09 µM (inconclusive)
- EC50 [10]: 2.04 µM (inconclusive)
- EC50 [11]: 11.8 µM (active)
- IC50 [12]: 60.4 µM (inactive)
- IC50 [13]: 28.5 µM (inactive)
- AC50 [14]: 4.28 µM (active)
- AC50 [15]: 2.68 µM (active)

Structure (SMILES): CC(C)(C)OC(=O)N/N=C\c1ccc([N+](=O)[O-])s1
- EC50 [16]: 2.46 µM (active)
- EC50 [17]: 2.7 µM (active)
- EC50 [18]: > 195 µM (not active)
- EC50 [19]: > 60 µM (not active)
- IC50 [20]: 27.3 µM (active)
- EC50 [21]: 2.46 µM (active)

Structure (SMILES): Cc1ccc(C(=O)NC2CCCC(C)C2C)cc1S(=O)(=O)N1CCCCC1 (stereo unspecified)
- IC50 [22]: 9.55 µM (active)

Structure (SMILES): COC(=O)N/N=C/c1cc(C)n(-c2ccccc2)c1C
- IC50 [22]: 11.5 µM (active)

Structure (SMILES): CC[C@H]1OC(=O)[C@H](C)[C@@H](O[C@H]2C[C@@](C)(OC)[C@@H](O)[C@H](C)O2)[C@H](C)[C@@H](O[C@@H]2O[C@H](C)C[C@H](N(C)C)[C@H]2O)[C@](C)(O)C[C@@H](C)CN(C)[C@H](C)[C@@H](O)[C@]1(C)O [AZITHROMYCIN]
- EC50 [2]: < 0.06 µM (active)
- EC50 [11]: 0.066 µM (active)
- AC50 [23]: 29.3 µM (active)
